Reference: ChEMBL document CHEMBL1821662 (Bioorg Med Chem Lett, 2011)

Experiments:
[1] = molecular target: T1, Aurora kinase B (Homo sapiens, UniProt Q96GD4); assay: Inhibition of Aurora B kinase assessed as reduction in histone H3 phosphorylation in human HCT116 cells; assay type: cell-based, HCT-116
[2] = molecular target: T1, Aurora kinase B; assay: Binding affinity to Aurora B kinase catalytic domain by competitive binding assay
[3] = tested on: HCT-116; assay: Antiproliferative activity against human HCT116 cells; assay type: functional, cell-based
[4] = molecular target: T2, Aurora kinase C (Homo sapiens, UniProt Q9UQB9); assay: Binding affinity to Aurora C kinase catalytic domain by competitive binding assay
T2 sequence (Q9UQB9 whole entry): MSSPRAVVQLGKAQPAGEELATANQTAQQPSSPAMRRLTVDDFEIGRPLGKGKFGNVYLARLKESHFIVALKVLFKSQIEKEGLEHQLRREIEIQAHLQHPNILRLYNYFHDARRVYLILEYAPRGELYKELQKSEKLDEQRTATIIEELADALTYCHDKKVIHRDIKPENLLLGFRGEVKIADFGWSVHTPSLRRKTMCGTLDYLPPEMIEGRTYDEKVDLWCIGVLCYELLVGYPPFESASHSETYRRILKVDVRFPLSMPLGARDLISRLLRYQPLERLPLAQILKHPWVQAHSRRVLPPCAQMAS

[5] = molecular target: T3, Aurora kinase A (Homo sapiens, UniProt O14965); assay: Binding affinity to Aurora A kinase catalytic domain by competitive binding assay
T3 sequence (O14965 whole entry): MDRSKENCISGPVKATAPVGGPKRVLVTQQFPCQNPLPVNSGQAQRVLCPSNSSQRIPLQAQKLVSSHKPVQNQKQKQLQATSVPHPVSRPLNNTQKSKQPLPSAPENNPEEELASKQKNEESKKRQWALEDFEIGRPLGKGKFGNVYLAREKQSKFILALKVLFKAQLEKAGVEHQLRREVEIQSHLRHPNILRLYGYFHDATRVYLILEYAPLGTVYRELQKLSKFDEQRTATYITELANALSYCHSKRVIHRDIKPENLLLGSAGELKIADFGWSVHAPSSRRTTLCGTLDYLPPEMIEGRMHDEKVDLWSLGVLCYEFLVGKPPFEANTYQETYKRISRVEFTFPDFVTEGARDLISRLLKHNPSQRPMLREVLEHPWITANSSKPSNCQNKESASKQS

[6] = Clearance in Sprague-Dawley rat at 1 mg/kg, iv; assay type: ADME, organism-based; design: dose 1 mg/kg, route intravenous; settings: in vivo
[7] = AUC in SCID mouse at 60 mg/kg, ip; assay type: ADME, organism-based; design: dose 60 mg/kg, route intraperitoneal; settings: plasma
[8] = tested on: HCT-116; assay: Antitumor activity against human HCT116 cells xenografted in nude mouse assessed as tumor suppression dose administered intraperitoneally twice daily; assay type: functional, cell-based
[9] = tested on: Mus musculus; assay: Toxicity in nude mouse xenografted with human HCT116 cells assessed as body weight loss at 37.5 mg/kg, ip BID for 8 days; assay type: organism-based, HCT-116; design: dose 37.5 mg/kg, route intraperitoneal; settings: in vivo, 192 h
[10] = AUC in Sprague-Dawley rat at 1 mg/kg, iv; assay type: ADME, organism-based; design: dose 1 mg/kg, route intravenous; settings: plasma
[11] = Half life in Sprague-Dawley rat at 1 mg/kg, iv; assay type: ADME, organism-based; design: dose 1 mg/kg, route intravenous; settings: in vivo
[12] = Volume of distribution in Sprague-Dawley rat at 1 mg/kg, iv; assay type: ADME, organism-based; design: dose 1 mg/kg, route intravenous; settings: in vivo

T1 sequence (Q96GD4 whole entry, the tested form may be a part): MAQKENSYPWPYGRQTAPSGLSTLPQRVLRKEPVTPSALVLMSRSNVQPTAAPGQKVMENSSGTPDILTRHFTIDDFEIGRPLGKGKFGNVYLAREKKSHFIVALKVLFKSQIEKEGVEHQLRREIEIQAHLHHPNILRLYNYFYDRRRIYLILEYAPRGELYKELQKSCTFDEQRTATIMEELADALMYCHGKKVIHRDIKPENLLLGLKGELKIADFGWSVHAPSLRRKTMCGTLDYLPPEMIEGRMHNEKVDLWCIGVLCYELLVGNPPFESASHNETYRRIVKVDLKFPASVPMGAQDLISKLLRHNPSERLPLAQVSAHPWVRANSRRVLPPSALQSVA

Structure (SMILES) | IC50 [1] | Kd [2] | IC50 [3] | Kd [4] | Kd [5] | clearance [6] | AUC [7] | Activity [8] | Activity [9] | AUC [10] | half-life [11] | Vd [12]
Cc1cc(Nc2nc(Sc3ccc(NC(=O)CNC4CCCC4)cc3)nn3cccc23)n[nH]1 | 655 nM | 42 nM | 365 nM | 14 nM | 143 nM | – | – | – | – | – | – | –
CCC(C)(C)O[C@H]1CN(CC(=O)Nc2ccc(Sc3nc(Nc4cc(C)[nH]n4)c4cccn4n3)cc2)C[C@@H]1O | 28 nM | 4 nM | 9 nM | – | 8 nM | – | – | – | – | – | – | –
Cc1cc(Nc2nc(Sc3ccc(NC(=O)CN4C[C@H](Oc5ccc(F)cc5)[C@@H](O)C4)cc3)nn3cccc23)n[nH]1 | 44 nM | 8 nM | 5 nM | – | 15 nM | 25.2 mL/min/kg | 47.5 µM·h | Dose-dependent effect | > 20% | 1.17 µM·h | 3.36 h | 2.93 L/kg
Cc1cc(Nc2nc(Sc3ccc(NC(=O)CN4C[C@H](OC(C)(C)C)C[C@H]4CO)cc3)nn3cccc23)n[nH]1 | 15 nM | 8 nM | 8 nM | 2 nM | 9 nM | 52.2 mL/min/kg | – | – | – | 0.581 µM·h | 15.4 h | 9.77 L/kg
Cc1cc(Nc2nc(Sc3ccc(NC(=O)CN4C[C@H](Oc5ccccc5F)[C@@H](O)C4)cc3)nn3cccc23)n[nH]1 | 28 nM | 9 nM | 4 nM | – | 10 nM | – | – | – | – | – | – | –
Cc1cc(Nc2nc(Sc3ccc(NC(=O)C4CC4)cc3)nn3cc(NC(=O)CCN4CCCCC4)cc23)n[nH]1 | 850 nM | 37 nM | 101 nM | 10 nM | 38 nM | – | – | – | – | – | – | –
Cc1cc(Nc2nc(Sc3ccc(NC(=O)CN4CCC[C@H]4CO)cc3)nn3cccc23)n[nH]1 | 146 nM | 4 nM | 148 nM | 1 nM | 14 nM | – | – | – | – | – | – | –
Cc1cc(Nc2nc(Sc3ccc(NC(=O)C4CC4)cc3)nn3cc(NC(=O)CN4CCC[C@@H]4CO)cc23)n[nH]1 | 6300 nM | 16 nM | 536 nM | 80 nM | 10 nM | – | – | – | – | – | – | –
COCCO[C@H]1CN(CC(=O)Nc2ccc(Sc3nc(Nc4cc(C)[nH]n4)c4cccn4n3)cc2)C[C@@H]1O | 49 nM | 2 nM | 25 nM | – | – | – | – | – | – | – | – | –
Cc1cc(Nc2nc(Sc3ccc(NC(=O)CN(C)C)cc3)nn3cccc23)n[nH]1 | 293 nM | 8 nM | 370 nM | 5 nM | 31 nM | – | – | – | – | – | – | –
Cc1cc(Nc2nc(Sc3ccc(NC(=O)CN4C[C@H](OC(C)C)[C@@H](O)C4)cc3)nn3cccc23)n[nH]1 | 23 nM | 4 nM | 10 nM | – | 8 nM | – | – | – | – | – | – | –
Cc1cc(Nc2nc(Sc3ccc(NC(=O)CN4C[C@H](Oc5cccc(F)c5)[C@@H](O)C4)cc3)nn3cccc23)n[nH]1 | 51 nM | 10 nM | 7 nM | – | 17 nM | – | – | – | – | – | – | –
Cc1cc(Nc2nc(Sc3ccc(NC(=O)C4CC4)cc3)nn3cc(NC(=O)CN4CCCC4)cc23)n[nH]1 | 828 nM | 49 nM | 536 nM | 13 nM | 23 nM | – | – | – | – | – | – | –
Cc1cc(Nc2cc(N3CCN(C)CC3)nc(Sc3ccc(NC(=O)C4CC4)cc3)n2)n[nH]1 [TOZASERTIB] | – | – | 28 nM | – | – | – | – | – | – | – | – | –
Cc1cc(Nc2nc(Sc3ccc(NC(=O)CN4C[C@H](OC5CCCC5)[C@@H](O)C4)cc3)nn3cccc23)n[nH]1 | 23 nM | 4 nM | 6 nM | – | 11 nM | – | – | – | – | – | – | –
Cc1cc(Nc2nc(Sc3ccc(NC(=O)CN4C[C@H](Oc5ccc(F)cc5F)[C@@H](O)C4)cc3)nn3cccc23)n[nH]1 | 58 nM | 17 nM | 5 nM | – | 13 nM | – | – | – | – | – | – | –
Cc1cc(Nc2nc(Sc3ccc(NC(=O)CN4C[C@H](N)C[C@H]4CO)cc3)nn3cccc23)n[nH]1 | 15000 nM | 144 nM | 4700 nM | – | 381 nM | – | – | – | – | – | – | –
Cc1cc(Nc2nc(Sc3ccc(NC(=O)C4CC4)cc3)nn3cc(NC(=O)CN4CCOCC4)cc23)n[nH]1 | 420 nM | 9 nM | 160 nM | 3 nM | 7 nM | – | – | – | – | – | – | –
Cc1cc(Nc2nc(Sc3ccc(NC(=O)CN4C[C@H](OC(C)(C)C(F)(F)F)[C@@H](O)C4)cc3)nn3cccc23)n[nH]1 | 27 nM | 4 nM | 9 nM | – | 6 nM | – | – | – | – | – | – | –
